What was measured:
Type in all cases: in vivo
[1] = test system: Corn (cultivar: Kuromochi); assay: Test Example 2: promotion of growth by treatment of corn seeds; conditions: corn seed treatment, 50 g per 100 kg of seeds; cultivated 18 days at 27° C.
Protocol: Evaluation Test for Promotion of Growth by Treatment of Corn Seeds Corn (cultivar: Kuromochi) A blank slurry solution containing 10% (V/V) color coat red (Becker Underwood, Inc.), 10% (V/V) CF-Clear (Becker Underwood, Inc.) and 1.66% Maxim 4FS (Syngenta) was prepared. A slurry solution was prepared by dissolving the present compound 1 in the blank slurry solution such that 50 g of the compound is applied to each 100 kg of corn seeds. In a 50-ml centrifuge tube (manufactured by BD Japan), 0.35 ml of the slurry solution was placed for each 14.4 g of corn seeds and stirred until the solution was dried, thereby coating the seeds. In addition, seeds were coated with the blank slurry solution and used as seeds for a non-treated group. One of the treated seeds was sown in culture soil (AISAI) in each pot (55 mm in diameter×58 mm in height) and cultivated for 18 days under the conditions of a temperature of 27° C., an illuminance of 5,000 lux, and a day length of 16 hours. After the cultivation, the fresh weight of the overground part of the plants was measured. The experiment was performed in three replications for each treatment condition and the average weight per individual was calculated. […]

[2] = test system: Rice (cultivar: Nipponbare); assay: Test Example 5: reduction of low-temperature stress by treatment of rice seeds; conditions: rice seed treatment, low-temperature stress 4° C. 5 days, then 12 days at 25° C.
Protocol: Evaluation Test for Reduction of Low-Temperature Stress by Treatment of Rice Seeds Rice (cultivar: Nipponbare) A blank slurry solution containing 5% (V/V) color coat red (Becker Underwood, Inc.), 5% (V/V) CF-Clear (Becker Underwood, Inc.) and 1% Maxim XL (Syngenta) was prepared. A slurry solution was prepared by dissolving the present compound 1 in the blank slurry solution such that 5 g or 50 g of the compound is applied to each 100 kg of rice seeds. In a 15-ml centrifuge tube (manufactured by AGC TECHNO GLASS CO., LTD.), 0.1 ml of the slurry solution was placed for each 3 g of rice seeds and stirred until the solution was dried, thereby coating the seeds. In addition, seeds were coated with the blank slurry solution and used as seeds for a non-treated group. A filter paper was placed on the bottoms of the holes of a plug tray having 406 holes, and the rice seeds treated above were sown on the filter paper. […] Twelve (12) days after the treatment, the fresh weight of the overground part of each plant was measured. The experiment was performed in four replications in each treated group and the average value was calculated. […]

[3] = test system: Benthamiana tobacco (Nicotiana benthamiana); assay: Test Example 9: reduction of low-temperature stress in hydroponics of tobacco; conditions: tobacco seedlings, medium with 0.1 ppm compound for 7 days; low-temperature stress 1.5±1.0° C. 7 days, then 3 days at 22° C.
Protocol: Evaluation Test for Reduction of Low-Temperature Stress in Hydroponics of Tobacco (Nicotiana benthamiana) Benthamiana tobacco (Nicotiana benthamiana) DMSO solutions containing each of the present compounds 1, 4 and 5 at a concentration of 100 ppm were prepared. […] These media were used in the treated-group. In a non-treated group, a medium obtained by adding a 1/1,000 volume of DMSO to a Murashige-and-Skoog medium at ½ concentration was used. The seeds of tobacco (Nicotiana benthamiana) were sown on 5 μL of the medium, and incubated at 22° C. overnight. Thereto was added 45 μL of a medium containing each present compound at a concentration of 0.1 ppm, and cultivated for 7 days under the conditions of an illuminance of 4,000 lux, a temperature of 22° C. and a day length of 16 hours, thereby treating the seedlings of tobacco (Nicotiana benthamiana) with the test compound. In the non-treated group, 45 μL of a medium obtained by adding a 1/1,000 volume of DMSO to a Murashige-and-Skoog medium at ½ concentration was added, and treated in the same manner as above. The seedlings of tobacco (Nicotiana benthamiana) treated with the present compounds were cultivated for 7 days under the conditions of an illuminance of 2,000 lux, a temperature of 1.5±1.0° C., and a day length of 16 hours, thereby subjecting to low-temperature stress treatment. The plants of tobacco (Nicotiana benthamiana) subjected to low-temperature stress treatment was cultivated for 3 days under the conditions of an illuminance of 4,000 lux, a temperature of 22° C., and a day length of 16 hours, and then the green leaf area of the plants was visually evaluated. Completely dead plant was scored as 0, the plant without low-temperature stress treatment was scored as 5, the green area was rated on a 6-point scale in ⅕ increments, and the score of not less than 1 was regarded as effective in reducing the stress. As a result of visual evaluation, the green leaf area of plants in the treated group, wherein the plants were treated with the present compound 1, 4 or 5 was much larger than that in the non-treated group.

COC(=O)c1cc2cc(C(F)(F)F)ccc2s1 [compound 1]
fresh weight of the overground part of plants vs non-treated group [1]: much heavier
fresh weight of the overground part of plants vs non-treated group ([2]; 5 g per 100 kg of seeds): much heavier
fresh weight of the overground part of plants vs non-treated group ([2]; 50 g per 100 kg of seeds): much heavier
green leaf area of plants (visual evaluation) vs non-treated group [3]: much larger

Reference: patent US9119396B2, “Method for promoting plant growth” (SUMITOMO CHEMICAL COMPANY, LIMITED, priority 2011, dated 2015)
